Where “and” joins values, the source holds several entries; their conditions need not be identical. Equal entries are not always repeated. Where two headings read alike, the source gives them in different places.
Experiments:
[1] = test system: primary Lmo2^Tg T-ALL; assay: Relative viability and LC50 on primary Lmo2^Tg leukemias, 48 h; assay type: cell-based, mouse; set-up: Relative % viable cells: unit of the concentration uncertain; conditions: for viability at 200 µM / viability at 40 µM: Mus musculus
Description: Supplementary Figure 6 . Efficacy of Dynole 34-2 on primary Lmo2-transgenic T-ALL. a, Relative viability (%) of primary Lmo2Tg leukemias treated with increasing concentration of Dynole 34-2 for 48 hours. Viability was normalized to vehicle-treated cells with experiments performed in duplicates or triplicates. […]
concentration (LC50) of Dynole 34-2 for each primary L mo2Tg T-ALL are indicated (right panel). […]

[2] = test system: normal hematopoietic cells of WT mice; assay: Normal hematopoiesis in treated wild-type mice (thymus and bone marrow populations); assay type: in vivo
[3] = test system: Notch1 and Hes1 in Lmo2-transgenic DN3a thymocytes; assay: Surface Notch1 and intracellular Hes1 in Lmo2^Tg DN3a thymocytes on OP9-DL1; assay type: cell-based, mouse; conditions: Lmo2-transgenic DN3a thymocytes on OP9-DL1 overnight, 0.2 μM Dynole 34-2
Description: Phosphoflow analysis was performed as previously described. Briefly, 2 × 10^6 cells stained for surface markers were subsequently resuspended into PBS 1× + 4% v/v paraformaldehyde and incubated for 10 min at 4 °C for fixation. Fixed cells were washed twice using PBS 1×, then resuspended in pre-chilled at −20 °C Perm Buffer III (BD Pharmingen) and incubated 30 min at 4 °C for permeabilization. Cells were washed twice using PBS 1× and incubated overnight at 4 °C in PBS 1× + 2% v/v fetal calf serum (FCS) with Cell Signalling purified antibodies (Genesearch Pty Ltd, Arundel QLD, Australia) against pSTAT5 (Tyr694; #9359), phospho-p38 MAPK (Thr180/Tyr182; #4511), phospho-p44/42 (Erk1/2; #9102), phospho-S6 (Ser235/236; #4856) and phospho-Akt (Ser473; #9271) or isotype control. […] Fluorescence-activated cell sorting (FACS) analysis was performed using LSRII and LSR Fortessa cytometers, following the gating strategies described in Supplementary Fig. 11. […]
For in vitro NOTCH1 signalling activation assays, cells were seeded on OP9 and OP9-DL1 stromal cell lines as described in the co-culture assays section and incubated overnight with either Dynole 34-2 or Ruxolitinib or DAPT resuspended in DMSO. […] Cells were washed twice, fixed and analysed for intracellular HES1 detection by flow cytometry as described in the FACS analysis section. […]

CCCCCCCCNC(=O)C(C#N)=Cc1cn(CCCN(C)C)c2ccccc12 [Dynole 34-2, 2-Cyano-N-octyl-3-(1-(3-dimethylaminopropyl)-1H-indol-3-yl)-acrylamide]
viability at 200 µM ([1]; read-out: Relative % viable cells, T-ALL 249, dose 0.2 mM): 94.3%
viability at 40 µM ([1]; read-out: Relative % viable cells, T-ALL 257, dose 0.04 mM): 92.3%
viability at 200 µM ([1]; read-out: Relative % viable cells, T-ALL 257, dose 0.2 mM): 76.4%
viability at 200 µM ([1]; read-out: Relative % viable cells, T-ALL 273, dose 0.2 mM): 96.1%
viability at 200 µM ([1]; read-out: Relative % viable cells, T-ALL 582, dose 0.2 mM): 97.6%
viability at 40 µM ([1]; read-out: Relative % viable cells, T-ALL 588, dose 0.04 mM): 114%
Relative % viable cells ([1]; T-ALL 249, dose 0.2 (unit uncertain)): 101.0% and 98.6%
Relative % viable cells ([1]; T-ALL 249, dose 1 (unit uncertain)): 97.4%
Relative % viable cells ([1]; T-ALL 249, dose 5 (unit uncertain)): 98.6% and 97.8%
Relative % viable cells ([1]; T-ALL 249, dose 25 (unit uncertain)): 14.0%
Relative % viable cells ([1]; T-ALL 257, dose 0.04 (unit uncertain)): 86.6%
Relative % viable cells ([1]; T-ALL 257, dose 0.2 (unit uncertain)): 75.9%
Relative % viable cells ([1]; T-ALL 257, dose 1 (unit uncertain)): 71.8%
Relative % viable cells ([1]; T-ALL 257, dose 5 (unit uncertain)): 49.8%
Relative % viable cells ([1]; T-ALL 273, dose 0.2 (unit uncertain)): 96.5% and 91.9%
Relative % viable cells ([1]; T-ALL 273, dose 1 (unit uncertain)): 92.9% and 93.1%
Relative % viable cells ([1]; T-ALL 273, dose 5 (unit uncertain)): 56.4% and 42.9%
Relative % viable cells ([1]; T-ALL 273, dose 10 (unit uncertain)): 20.2% and 18.0%
Relative % viable cells ([1]; T-ALL 273, dose 25 (unit uncertain)): 17.9%
Relative % viable cells ([1]; T-ALL 582, dose 0.2 (unit uncertain)): 94.2%
Relative % viable cells ([1]; T-ALL 582, dose 1 (unit uncertain)): 97.3%
Relative % viable cells ([1]; T-ALL 582, dose 5 (unit uncertain)): 75.4% and 57.9%
Relative % viable cells ([1]; T-ALL 582, dose 10 (unit uncertain)): 8.4% and 8.6%
Relative % viable cells ([1]; T-ALL 582, dose 25 (unit uncertain)): 6.2%
Relative % viable cells ([1]; T-ALL 588, dose 0.04 (unit uncertain)): 111.1%
Relative % viable cells ([1]; T-ALL 588, dose 0.2 (unit uncertain)): 107.5% and 75.9%
Relative % viable cells ([1]; T-ALL 588, dose 1 (unit uncertain)): 100.1%
Relative % viable cells ([1]; T-ALL 588, dose 5 (unit uncertain)): 75.8%
Relative % viable cells ([1]; T-ALL 588, dose 25 (unit uncertain)): 11.9%
Relative % viable cells ([1]; T-ALL 742, dose 0.2 (unit uncertain)): 53.7% and 80.5%
Relative % viable cells ([1]; T-ALL 742, dose 1 (unit uncertain)): 25.7%
Relative % viable cells ([1]; T-ALL 742, dose 5 (unit uncertain)): 22.9%
Relative % viable cells ([1]; T-ALL 742, dose 25 (unit uncertain)): 0.0%
killing of LSCs from primary Lmo2^Tg T-ALL ([1]; result in words): dose-dependent killing
Absolute numbers in the thymus: DN ([2]; Supplementary Figure 5a-b): 6020000 and 5580000 and 7110000
Absolute numbers in the thymus: DN1 ([2]; Supplementary Figure 5a-b): 511000 and 452000 and 707000
Absolute numbers in the thymus: DN2 ([2]; Supplementary Figure 5a-b): 47600 and 47100 and 78500
Absolute numbers in the thymus: DN4 ([2]; Supplementary Figure 5a-b): 3000000 and 2950000 and 3730000
Absolute numbers in the thymus: DP ([2]; Supplementary Figure 5a-b): 102000000 and 86500000 and 114000000
Absolute numbers in the thymus: SP ([2]; Supplementary Figure 5a-b): 11300000 and 9900000 and 12100000
Absolute numbers in the bone marrow: B cells ([2]; Supplementary Figure 5c-d): 6210000 and 6630000 and 5010000
Absolute numbers in the bone marrow: MPP2 ([2]; Supplementary Figure 5c-d): 32800 and 19900 and 19000
Absolute numbers in the bone marrow: MPP3 ([2]; Supplementary Figure 5c-d): 31000 and 22000 and 23000
Absolute numbers in the bone marrow: MPP4 ([2]; Supplementary Figure 5c-d): 146000 and 93900 and 87200
Absolute numbers in the bone marrow: Myeloid cells ([2]; Supplementary Figure 5c-d): 9680000 and 8860000 and 9360000
Absolute numbers in the bone marrow: T cells ([2]; Supplementary Figure 5c-d): 1060000 and 911000 and 1020000
effect on differentiated and progenitor cells in thymus and bone marrow ([2]; non-tumour-bearing mice, result in words): no detrimental effect
Hes1 (MFI) [3]: 18345 MFI and 12543 MFI and 14751 MFI and 12961 MFI
Notch1 (MFI) [3]: 16352 MFI and 11570 MFI and 16901 MFI and 11730 MFI
